Data: patent US20060069132A1, “Azolecarboxamide herbicides” (priority 2004, published 2006)

Tests used:
morningglory = experiment: Test A pre-/postemergence herbicide test; format: in vivo, Ipomoea spp.
Summary of the method: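 Visual injury scores on a 0–100 scale (100 = complete control) taken about ten days post-treatment in greenhouse against untreated controls; dash means no result. Treatments: preemergence soil spray and postemergence spray to runoff on one- to two-leaf plants 2 to 10 cm tall, surfactant-containing formulation.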

pigweed [1] = experiment: Test B pre-/postemergence herbicide test; format: in vivo, Amaranthus retroflexus; settings: for Plant response rating, Pigweed: preemergence; for Pigweed plant response rating: postemergence, visual rating, scale 0 (no effect) to 100 (complete control)
Summary of the method: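 Plants compared with untreated controls 13–15 days post-treatment and given a visual 0–100 injury score. Applications: preemergence to seeds; postemergence at 1- to 4-leaf (2–18 cm); paddy species flooded, 2-leaf stage. Vehicle non-phytotoxic, surfactant included.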

wild oat = experiment: Test B postemergence herbicide test; format: in vivo, Avena fatua; settings: postemergence, visual rating, scale 0 (no effect) to 100 (complete control)
Summary of the method: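 Plants grow to 1- to 4-leaf stage (2–18 cm) for postemergence spraying, or to 2-leaf stage for the paddy test. Formulated compound is applied. Greenhouse holding lasts 13–15 days. Response is scored visually relative to controls, 0 no effect to 100 complete control; a dash means no result.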

large crabgrass = experiment: Test C pre-/postemergence herbicide test; format: in vivo, Digitaria sanguinalis
Summary of the method: (§1)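 Visual ratings on a 0–100 scale (100 = complete control) made versus untreated controls after 12 to 14 greenhouse days. Test chemicals, formulated in surfactant-containing non-phytotoxic solvent, applied preemergence to planted seeds or postemergence to 1- to 4-leaf plants (2 to 18 cm).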

goosegrass = experiment: Test C pre-/postemergence herbicide test; format: in vivo, Eleusine indica
Summary of the method: as §1

kochia = experiment: Test C pre-/postemergence herbicide test; format: in vivo, Kochia scoparia
Summary of the method: as §1

lambsquarters = experiment: Test C pre-/postemergence herbicide test; format: in vivo, Chenopodium album; settings: for Plant response rating (0 = no effect, 100 = complete control), Lambsquarters: 62 g ai/ha; for Plant response rating (0 = no effect, 100 = complete control), Lambsquarters / Plant response rating, Lambsquarters: preemergence; for Plant response rating, Lambsquarters: 125 g ai/ha, scale 0 (no effect) to 100 (complete control), visual, 12 to 14 days
Summary of the method: as §1

pigweed [2] = experiment: Test C pre-/postemergence herbicide test; format: in vivo, Amaranthus retroflexus
Summary of the method: as §1

common ragweed = experiment: Test C pre-/postemergence herbicide test; format: in vivo, Ambrosia elatior; design: key to Plant response rating, Ragweed: 0 = no effect, 100 = complete control
Summary of the method: as §1

[3] = 500 g ai/ha, visual rating 0-100, 0 no effect, 100 complete control
[4] = 125 g ai/ha, 0 to 100 scale, 0 is no effect, 100 is complete control
[5] = 125 g ai/ha, scale 0 (no effect) to 100 (complete control), visual, 12 to 14 days, preemergence
[6] = 250 g ai/ha, scale 0 to 100 (0 no effect, 100 complete control), visual, 12 to 14 days, preemergence
[7] = Preemergence, 500 g ai/ha, scale 0 to 100, 0 no effect, 100 complete control
[8] = Postemergence, 250 g ai/ha, scale 0 to 100, 0 no effect, 100 complete control
[9] = postemergence, 125 g ai/ha, scale 0 to 100
[10] = postemergence, 62 g ai/ha, scale 0 to 100

| SMILES | Plant response rating, Pigweed (pigweed [1]; [3]) | Pigweed plant response rating (pigweed [1]; 125 g ai/ha) | Pigweed plant response rating (pigweed [1]; 500 g ai/ha) | Plant response rating, Pigweed (pigweed [1]; [4]) | Oat, Wild plant response rating (wild oat; 125 g ai/ha) | Oat, Wild plant response rating (wild oat; 500 g ai/ha) | Plant response rating (0 = no effect, 100 = complete control), Crabgrass, Large (large crabgrass; 62 g ai/ha, preemergence) | Plant response rating, Crabgrass, Large (large crabgrass; [5]) | Plant response rating, Crabgrass, Large (large crabgrass; [6]) | Plant response rating (0 = no effect, 100 = complete control), Goosegrass (goosegrass; 62 g ai/ha, preemergence) | Plant response rating, Goosegrass (goosegrass; [5]) | Plant response rating (0 = no effect, 100 = complete control), Kochia (kochia; 62 g ai/ha, preemergence) | Plant response rating, Kochia (kochia; [5]) | Plant response rating (0 = no effect, 100 = complete control), Lambsquarters (lambsquarters) | Plant response rating, Lambsquarters (lambsquarters) | Plant response rating (0 = no effect, 100 = complete control), Pigweed (pigweed [2]; 62 g ai/ha, preemergence) | Plant response rating, Pigweed (pigweed [2]; [5]) | Plant response rating (0 = no effect, 100 = complete control), Ragweed (common ragweed; 62 g ai/ha, preemergence) | Plant response rating, Ragweed (common ragweed; [5]) | other results |
| --- | --- | --- | --- | --- | --- | --- | --- | --- | --- | --- | --- | --- | --- | --- | --- | --- | --- | --- | --- | --- |
| CCn1nc(C(C)(C)C)cc1C(=O)Nc1cccc(S(=O)(=O)C(F)(F)F)c1 [Compound 134] | 100 | 80 | 90 | 100 | 30 | 30 | 65 | 95 | 95 | 20 | 65 | 85 | 100 | 100 | 100 | 95 | 95 | 0 | 25 | Morningglory plant response rating (morningglory; Postemergence, 250 g ai/ha, 0 to 100 scale, 0 no effect, 100 complete control): 10; Plant response rating, Morningglory (morningglory; Postemergence, 1000 g ai/ha, 0 to 100 scale, 0 no effect, 100 complete control): 20; Morningglory plant response rating (morningglory; Preemergence, 1000 g ai/ha, visual rating, 0 to 100 scale (0 no effect, 100 complete control)): 30; Morningglory plant response rating (morningglory; preemergence, 250 g ai/ha, visual injury, 0 to 100 scale (0 no effect, 100 complete control)): 5; Crabgrass, Large plant response rating (large crabgrass; [7]): 100; Goosegrass plant response rating (goosegrass; [7]): 95; Kochia plant response rating (kochia; [7]): 100; Lambsquarters plant response rating (lambsquarters; [7]): 100; Pigweed plant response rating (pigweed [2]; [7]): 100; Ragweed plant response rating (common ragweed; [7]): 100 |
| CCn1nc(C(C)(C)C)cc1C(=O)Nc1cccc(C#N)c1 [Compound 139] | 100 | 60 | 90 | 90 | 10 | 10 | 40 | 100 | 100 | 60 | 85 | 100 | 100 | 100 | 100 | 100 | 100 | 50 | 50 | Morningglory plant response rating (morningglory; Postemergence, 500 g ai/ha, 0 to 100 scale, 0 no effect, 100 complete control): 20; Plant response rating, Morningglory (morningglory; Postemergence, 2000 g ai/ha, 0 to 100 scale, 0 no effect, 100 complete control): 35; Morningglory plant response rating (morningglory; Preemergence, 500 g ai/ha, visual rating, 0 to 100 scale (0 no effect, 100 complete control)): 30; Morningglory plant response rating (morningglory; Preemergence, 2000 g ai/ha, visual rating, 0 to 100 scale (0 no effect, 100 complete control)): 85; Plant response rating, Crabgrass, Large (large crabgrass; [8]): 0; Plant response rating, Crabgrass, Large (large crabgrass; [9]): 0; Plant response rating, Crabgrass, Large (large crabgrass; [10]): 0; Plant response rating, Goosegrass (goosegrass; [8]): 5; Plant response rating, Goosegrass (goosegrass; [9]): 0; Plant response rating, Goosegrass (goosegrass; [10]): 0; Plant response rating, Kochia (kochia; [8]): 50; Plant response rating, Kochia (kochia; [9]): 50; Plant response rating, Kochia (kochia; [10]): 50; Plant response rating, Pigweed (pigweed [2]; [8]): 80; Plant response rating, Pigweed (pigweed [2]; [9]): 65; Plant response rating, Pigweed (pigweed [2]; [10]): 50; Plant response rating, Ragweed (common ragweed; [8]): 45; Plant response rating, Ragweed (common ragweed; [9]): 45; Plant response rating, Ragweed (common ragweed; [10]): 0 |
